Two compounds from patent US8044076B2, “Phenyl derivatives and their use as immunomodulators” (Actelion Pharmaceuticals Ltd., priority 2006, dated 2011) can be followed below.

For the assay, the target named is human S1P1 receptor (Homo sapiens, UniProt P21453). In words: GTPγS assay to determine EC50 values. It counts as biochemical. The following applies: 35S-GTPγS binding, membrane preparations of CHO cells expressing recombinant human S1P1 receptor. The protocol: GTPγS binding assays are performed in 96 well microtiter plates (Nunc, 442587) in a final volume of 200 μl, using membrane preparations of CHO cells expressing recombinant human S1P1 receptor. Assay conditions are 20 mM Hepes (Fluka, 54461), 100 mM NaCl (Fluka, 71378), 5 mM MgCl2 (Fluka, 63064), 0.1% BSA (Calbiochem, 126609), 1 μM GDP (Sigma, G-7127), 2.5% DMSO (Fluka, 41644), 50 pM ^35S-GTPγS (Amersham Biosciences, SJ1320). The pH is 7.4. Test compounds are dissolved and diluted in 100% DMSO and pre-incubated at room temperature for 30 min in 150 μl of the above assay buffer, in the absence of ^35S-GTPγS. After addition of 50 μl of ^35S-GTPγS, the assay is incubated for 1 h at rt. The assay is terminated by transfer of the reaction mixture to a Multiscreen plate (Millipore, MAHFC1H60) using a cell harvester from Packard Biosciences, and the plates are washed with ice-cold 10 mM Na2HPO4/NaH2PO4 (70%/30%), dried, sealed at the bottom and, after addition of 25 μl MicroScint20 (Packard Biosciences, order#6013621), sealed on the top. Membrane-bound ^35S-GTPγS is measured with a TopCount from Packard Biosciences.
EC50 is the concentration of agonist inducing 50% of the maximal specific ^35S-GTPγS binding. Specific binding is determined by subtracting non-specific binding from maximal binding. […]
The EC50 values were determined according to the method described above: […]

Sequence of human S1P1 receptor (P21453 whole entry): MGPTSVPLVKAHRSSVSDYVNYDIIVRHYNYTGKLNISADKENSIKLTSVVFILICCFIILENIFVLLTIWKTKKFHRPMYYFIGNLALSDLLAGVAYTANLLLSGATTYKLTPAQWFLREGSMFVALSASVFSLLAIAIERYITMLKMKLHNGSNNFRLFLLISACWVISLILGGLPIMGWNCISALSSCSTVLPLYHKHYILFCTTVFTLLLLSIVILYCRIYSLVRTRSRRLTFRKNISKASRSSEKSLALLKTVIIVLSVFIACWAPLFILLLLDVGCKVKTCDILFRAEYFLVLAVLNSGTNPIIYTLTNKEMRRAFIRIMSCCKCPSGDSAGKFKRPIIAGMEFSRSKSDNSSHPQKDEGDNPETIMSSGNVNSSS

Consider `Cc1cc(-c2nc(-c3cc(C)c(OCC(O)CNC(=O)CO)c(C)c3)no2)ccc1OC(C)C` (centres unmarked) [Example 6], for which the EC50 was determined as 0.1 nM. On to `Cc1cc(-c2nc(-c3cc(C)c(OCC(O)CNC(=O)CO)c(C)c3)no2)ccc1CC(C)C` (centres unmarked) [Example 20], for which the half-maximal effective concentration (EC50) worked out at 0.8 nM.
